US10273235B2, “Compositions and methods for inhibiting β-lactamase” (LegoChem Biosciences, Inc., priority 2015, dated 2019)
Values joined by “and” are separate entries in the source; they are usually repeats but may differ in a detail not shown here. Identical values can stand only once.

Experiments:
[1] = system: K. pneumoniae MP14; test: BLI potentiation MIC, K. pneumoniae MP14; type: cell-based; details: BLI fixed 4 ug/ml; incubation 19 h
Experimental: (§1) MIC90 (μg/mL) is the lowest concentration of an antibiotic that will inhibit the visible growth of 90% of microorganisms after incubation as compared with a control group to which the antibiotic is not treated.
(§2) MIC values were measured by the broth microdilution method developed by the Clinical and Laboratory Standards Institute (CLSI) (see CLSI M07-A9, Methods for Dilution Antimicrobial Susceptibility Test for Bacteria that Grow Aerobically; Approved Standard-Ninth Edition (2012): CLSI, Villanova, Pa.). The in vitro antibacterial activity was measured with respect to the following 9 clinical isolates: P. aeruginosa (3 strains); K. pneumoniae (6 strains). The in vitro antibacterial activity of selected compounds was measured with respect to the following 15 clinical isolates: K. pneumoniae (15 strains).

[2] = system: K. pneumoniae 23; test: BLI potentiation MIC, K. pneumoniae 23; type: cell-based; details: BLI fixed 4 ug/ml; incubation 19 h
Experimental: as §1, §2

[3] = system: K. pneumoniae 100; test: BLI potentiation MIC, K. pneumoniae 100; type: cell-based; details: BLI fixed 4 ug/ml; incubation 19 h
Experimental: as §1, §2

[4] = system: K. pneumoniae 6839; test: BLI potentiation MIC, K. pneumoniae 6839 (SHV-11, SHV-12, DHA-1); type: cell-based; details: BLI fixed 4 ug/ml; incubation 19 h
Experimental: as §1, §2

[5] = system: K. pneumoniae ATCC700603; test: BLI potentiation MIC, K. pneumoniae ATCC700603 (SHV-3); type: cell-based; details: BLI fixed 4 ug/ml; incubation 19 h
Experimental: as §1, §2

[6] = target: KPC-3 β-lactamase (class A) (Klebsiella pneumoniae, UniProt Q9F663, H272Y); test: Inhibitory activity against β-lactamases (nitrocefin), KPC-3; type: biochemical, K. pneumoniae; details: 100 μM nitrocefin, 30° C., pH 6.8; read-out: IC50 values, KPC-3
Experimental: (§3) More diluted stocks were prepared as necessary. Enzyme activity was determined by monitoring the change of absorbance at 492 nm using the characteristic molecular extinction coefficient (Δε492=17,400 M^−1 cm^−1) of nitrocefin by a Shimazu UV-1650PC spectrophotometer. The nitrocefin was purchased from OXOID. Kinetic measurements were run at 30° C. in 10 mM MES[2-(N-morpholino)ethanesulfonic acid]buffer (pH 6.8) or 10 mM MES[2-(N-morpholino)ethanesulfonic acid] buffer (pH 6.8), […] BSA and 50 mM sodium bicarbonate. Reactions were performed in 2.5 mL cuvettes with 100 μM nitrocefin and initiated by adding 1.5 nM to 2.5 nM enzyme. The first 180 s of each reaction was used to measure initial rates. Data were evaluated using Microsoft Excel. Concentration dependent inhibition of enzyme was measured using different concentrations of inhibitors resulting from two-fold dilution series. Reaction progress at every concentration of inhibitor was measured in triplicates. IC50 values were calculated using 4-parameter log fits using XL Fit curve fitting software (www.idbs.com) for Excel using the following equation:
(§4) [formula] where y is the remaining enzyme activity (in %) and x is the corresponding concentration. he fitted IC50 parameter is the relative IC50, and is defined as the concentration giving a response half way between the fitted top (B) and bottom (A) of the curve.

[7] = system: K. pneumoniae 5971(KOX); test: BLI potentiation MIC, K. pneumoniae 5971(KOX); type: cell-based; details: BLI fixed 4 ug/ml; incubation 19 h
Experimental: as §1, §2

[8] = system: P. aeruginosa ARC3514; test: BLI potentiation MIC, P. aeruginosa ARC3514 (KPC-2, OprD−, AmpC); type: cell-based; details: BLI fixed 4 ug/ml; incubation 19 h
Experimental: as §1, §2

[9] = system: K. pneumoniae CL5761; test: MIC of strain used for extraction of enzymes, K. pneumoniae CL5761 (KPC-3, TEM-216, SHV-5); type: cell-based; details: BLI: 4 ug/mL
Experimental: as §1, §2

[10] = system: P. aeruginosa ATCC27853; test: BLI potentiation MIC (broth microdilution), P. aeruginosa ATCC27853 (PoxB, AmpC); type: cell-based; details: BLI fixed 4 ug/ml; incubation 19 h
Experimental: as §1, §2

[11] = system: E. coli K0519020; test: MIC of strain used for extraction of enzymes, E. coli K0519020 (CTX-M-15, TEM-1, OXA-1, AmpC (NC_000913)); type: cell-based; details: BLI: 4 ug/mL
[12] = system: E. aerogenes K9911729; test: MIC of strain used for extraction of enzymes, E. aerogenes K9911729 (CMY-10, TEM-1, SHV-12, AmpC (DQ478697)); type: cell-based; details: BLI: 4 ug/mL
[13] = system: K. pneumoniae 4248; test: BLI potentiation MIC, K. pneumoniae 4248 (SHV-11, CTX-M-15, TEM-1, OXA-1); type: cell-based; details: BLI fixed 4 ug/ml; incubation 19 h
Experimental: as §1, §2

[14] = system: K. pneumoniae 101; test: BLI potentiation MIC, K. pneumoniae 101; type: cell-based; details: BLI fixed 4 ug/ml; incubation 19 h
Experimental: as §1, §2

[15] = system: K. pneumoniae 4006; test: BLI potentiation MIC, K. pneumoniae 4006 (SHV-12, CTX-M-15, TEM-1, OXA-9); type: cell-based; details: BLI fixed 4 ug/ml; incubation 19 h
Experimental: as §1, §2

[16] = system: K. pneumoniae 89; test: BLI potentiation MIC, K. pneumoniae 89; type: cell-based; details: BLI fixed 4 ug/ml; incubation 19 h
Experimental: as §1, §2

[17] = system: K. pneumoniae 6540; test: BLI potentiation MIC, K. pneumoniae 6540; type: cell-based; details: BLI fixed 4 ug/ml; incubation 19 h
Experimental: as §1, §2

[18] = system: P. aeruginosa ARC3506; test: BLI potentiation MIC, P. aeruginosa ARC3506 (VEB-1, OXA-10, OprD−, AmpC); type: cell-based; details: BLI fixed 4 ug/ml; incubation 19 h
Experimental: as §1, §2

[19] = target: T1, CMY-10 β-lactamase (class C) (Klebsiella aerogenes, UniProt Q99QC1); test: Inhibitory activity against β-lactamases (nitrocefin), CMY-10; type: biochemical; details: 100 μM nitrocefin, 30° C., pH 6.8; read-out: IC50 values, CMY-10
T1 construct: MICs of bacterial strains used for extraction of enzymes; endogenous in cells
Experimental: as §3, §4

[20] = system: K. pneumoniae NDM-506; test: BLI potentiation MIC, K. pneumoniae NDM-506; type: cell-based; details: BLI fixed 4 ug/ml; incubation 19 h
Experimental: as §1, §2

[21] = system: K. pneumoniae 5576; test: BLI potentiation MIC, K. pneumoniae 5576 (SHV-11, CMY-2, DHA-1, TEM-1); type: cell-based; details: BLI fixed 4 ug/ml; incubation 19 h
Experimental: as §1, §2

[22] = system: K. pneumoniae 5216; test: BLI potentiation MIC, K. pneumoniae 5216 (TEM-1A); type: cell-based; details: BLI fixed 4 ug/ml; incubation 19 h
Experimental: as §1, §2

[23] = system: K. pneumoniae 3784; test: BLI potentiation MIC, K. pneumoniae 3784 (SHV-11, SHV-12, DHA-1); type: cell-based; details: BLI fixed 4 ug/ml; incubation 19 h
Experimental: as §1, §2

[24] = target: T2, OXA-48 β-lactamase (class D) (Klebsiella pneumoniae, UniProt Q6XEC0); test: Inhibitory activity against β-lactamases (nitrocefin), OXA-48; type: biochemical; details: 100 μM nitrocefin, 30° C., pH 6.8
T2 construct: MICs of bacterial strains used for extraction of enzymes; endogenous in cells; host or cells: bacterial strain carrying OXA-48 (E. coli according to the earlier reading)
Experimental: as §3, §4

[25] = system: K. pneumoniae 5117; test: BLI potentiation MIC, K. pneumoniae 5117 (SHV-11, TEM-1); type: cell-based; details: BLI fixed 4 ug/ml; incubation 19 h
Experimental: as §1, §2

[26] = system: K. pneumoniae 7586; test: BLI potentiation MIC, K. pneumoniae 7586; type: cell-based; details: BLI fixed 4 ug/ml; incubation 19 h
Experimental: as §1, §2

T1 sequence (Q99QC1 24-382): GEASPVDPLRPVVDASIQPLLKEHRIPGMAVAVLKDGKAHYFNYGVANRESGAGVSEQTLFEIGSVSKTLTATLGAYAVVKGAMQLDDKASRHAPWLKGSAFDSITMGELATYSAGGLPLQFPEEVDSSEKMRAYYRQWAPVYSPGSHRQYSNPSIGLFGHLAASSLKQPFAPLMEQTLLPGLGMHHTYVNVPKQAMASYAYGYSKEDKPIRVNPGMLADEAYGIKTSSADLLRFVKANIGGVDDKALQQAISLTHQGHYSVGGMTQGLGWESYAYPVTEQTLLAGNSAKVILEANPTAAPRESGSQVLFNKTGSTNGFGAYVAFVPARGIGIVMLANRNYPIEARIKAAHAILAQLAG
Chain of KPC-3 β-lactamase (class A) (Q9F663 25-293 H272Y): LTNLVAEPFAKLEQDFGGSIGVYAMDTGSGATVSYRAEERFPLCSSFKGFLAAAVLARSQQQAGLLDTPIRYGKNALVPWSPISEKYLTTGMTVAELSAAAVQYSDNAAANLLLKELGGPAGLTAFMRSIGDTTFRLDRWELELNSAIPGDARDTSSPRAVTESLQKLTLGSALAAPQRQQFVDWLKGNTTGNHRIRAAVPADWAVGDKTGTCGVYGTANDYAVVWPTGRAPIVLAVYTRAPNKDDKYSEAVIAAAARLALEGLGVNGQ
T2 sequence (Q6XEC0 23-265, looked up): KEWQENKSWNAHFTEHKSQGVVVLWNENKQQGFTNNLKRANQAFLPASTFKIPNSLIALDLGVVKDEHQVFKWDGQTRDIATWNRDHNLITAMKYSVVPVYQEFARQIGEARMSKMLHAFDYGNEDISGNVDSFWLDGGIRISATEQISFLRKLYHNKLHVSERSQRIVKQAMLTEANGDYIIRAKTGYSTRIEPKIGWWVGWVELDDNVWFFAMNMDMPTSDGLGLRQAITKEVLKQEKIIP

NCCONC(=O)[C@@H]1CC[C@@H]2CN1C(=O)N2OS(=O)(=O)O [OP-595]
MIC of LCB10-0200 with BLI [1]: 0.03125 μg/mL and <0.0312 μg/mL
MIC of LCB10-0200 with BLI [2]: 1 μg/mL
MIC of LCB10-0200 with BLI [3]: 0.0625 μg/mL
MIC of LCB10-0200 with BLI [4]: 0.0625 μg/mL
MIC of Ceftazidime with BLI [5]: 0.125 µg/mL
MIC of LCB10-0200 with BLI [5]: 0.125 μg/mL
MIC of Meropenem with BLI [5]: 0.125 µg/mL and 0.0625 µg/mL
IC50 [6]: 0.0637 µM
MIC of LCB10-0200 with BLI [7]: 8 μg/mL and 16 μg/mL
MIC of Ceftazidime with BLI [8]: 8 µg/mL
MIC of LCB10-0200 with BLI [8]: 0.125 μg/mL and 0.25 μg/mL
MIC of Meropenem with BLI [8]: >64 µg/mL
MIC of LCB10-0200 with BLI [9]: 0.25 μg/mL
MIC of Meropenem with BLI [9]: 1 µg/mL
MIC of Ceftazidime with BLI [10]: 2 µg/mL
MIC of LCB10-0200 with BLI [10]: 0.25 μg/mL and 0.5 μg/mL
MIC of Meropenem with BLI [10]: 2 µg/mL
MIC of LCB10-0200 with BLI [11]: 0.0625 μg/mL
MIC of Meropenem with BLI [11]: 0.125 µg/mL
MIC of LCB10-0200 with BLI [12]: <0.0312 μg/mL
MIC of Meropenem with BLI [12]: <0.0312 µg/mL
MIC of Ceftazidime with BLI [13]: 0.0625 µg/mL
MIC of LCB10-0200 with BLI [13]: <0.03125 μg/mL
MIC of Meropenem with BLI [13]: 0.0625 µg/mL
MIC of LCB10-0200 with BLI [14]: 0.25 μg/mL
MIC of Meropenem with BLI [14]: 0.125 µg/mL and 0.0625 µg/mL
MIC of Ceftazidime with BLI [15]: 0.125 µg/mL
MIC of LCB10-0200 with BLI [15]: 0.03125 μg/mL and 0.0625 μg/mL
MIC of Meropenem with BLI [15]: 0.0625 µg/mL
MIC of LCB10-0200 with BLI [16]: 0.0625 μg/mL
MIC of LCB10-0200 with BLI [17]: 0.0625 μg/mL
MIC of Meropenem with BLI [17]: 0.125 µg/mL and 0.0625 µg/mL
MIC of Ceftazidime with BLI [18]: 32 µg/mL
MIC of LCB10-0200 with BLI [18]: 0.25 μg/mL
MIC of Meropenem with BLI [18]: 64 µg/mL
IC50 [19]: 42.6 µM
MIC of Ceftazidime with BLI [20]: 0.125 µg/mL
MIC of Meropenem with BLI [20]: >64 µg/mL
MIC of Ceftazidime with BLI [21]: 0.125 µg/mL
MIC of LCB10-0200 with BLI [21]: 0.0625 μg/mL
MIC of Meropenem with BLI [21]: 0.03125 µg/mL and 0.0625 µg/mL
MIC of LCB10-0200 with BLI [22]: 0.25 μg/mL and 0.5 μg/mL
MIC of Meropenem with BLI [22]: 2 µg/mL
MIC of Ceftazidime with BLI [23]: 0.5 µg/mL
MIC of LCB10-0200 with BLI [23]: 0.0625 μg/mL
MIC of Meropenem with BLI [23]: 0.25 µg/mL
IC50 [24]: 44.2 µM
MIC of LCB10-0200 with BLI [25]: 0.0625 μg/mL
MIC of Meropenem with BLI [25]: 0.5 µg/mL and 0.25 µg/mL
MIC of LCB10-0200 with BLI [26]: 0.03125 μg/mL and 0.0625 μg/mL
